From patent publication US12485121B2, “Antiviral agents for the treatment and prevention of HIV infection” (Pharmasyntez, Joint Stock Company, priority 2020, dated 2025)

System: HIV-1 subtype A strain 12RU 69831
Assay: Inhibition of HIV-1 reproduction / protection of infected MT-4 cells (living cell concentration, p24 production)
Format: cell-based
Details: Human immunodeficiency virus 1, MT4, MT-4 cells infected with HIV-1 at a constant virus dose of 300 CCID50; read-out: Activity against HIV-1 12RU 69831 strain (subtype A)
Experimental: Evaluation of HIV reproduction inhibition/protection of human cells by anti-HIV products of the present invention was conducted by measuring change in living cells concentration in experimental wells with MT-4 cells infected with HIV-1, as well as by the production of viral protein p24 with adding different concentrations of compounds according to the present invention. Antiviral activity of products against HIV-1 subtype A strain 12RU 69831 was determined, when the cell culture was infected with a constant dose of virus, corresponding to 300 CCID50.

| SMILES | IC50 |
| --- | --- |
| Cc1cccc(C)c1Oc1nc(Nc2ccc(C#N)cc2)nc2c1CCN(Cc1ccccc1)C2 [BB0273459] | 74.3 µM |
| Cc1cc(C=O)cc(C)c1Oc1nc(Nc2ccc(C#N)cc2)nc2c1CCN(C)C2 [BB0273775, 4-((4-(4-Formyl-2,6-dimethylphenoxy)-7-methyl-5,6,7,8-tetrahydro[3,4-d]pyrimidine-2-yl)amino)benzonitrile] | 295 µM |
| Cc1cc(C2OCCCO2)cc(C)c1Oc1nc(Nc2ccc(C#N)cc2)nc2c1CCN(C(=O)OC(C)(C)C)CC2 [BB0273892] | 1220 µM |
| Cc1cc(C=O)cc(C)c1Oc1nc(Nc2ccc(C#N)cc2)nc2c1CCN(C(=O)OC(C)(C)C)CC2 [BB0273943, Tert-butyl 2-((4-cyanophenyl)amino)-4-(4-formyl-2,6-dimethylphenyoxy)-8,9-dihydro-5H-pyrimido[4,5-d]azepine-7(6H)-carboxylate] | 346 µM |
| Cc1cc(C#N)cc(C)c1Oc1nc(Nc2ccc(C#N)cc2)nc2c1CN(C(=O)OC(C)(C)C)CC2 [BB0273961, Tert-butyl 4-(4-cyano-2,6-dimethylphenoxy)-2-((4-cyanophenyl)amino)-7,8-dihydropyrido[4,3-d]pyrimidine-6(5H)-carboxylate] | 42.3 µM |
| Cc1cc(C#N)cc(C)c1Oc1nc(Nc2ccc(C#N)cc2)nc2c1CNCC2 [BB0273963, 4-((2-((4-Cyanophenyl)amino)-5,6,7,8-tetrahydropyrido[4,3-d]pyrimidine-4-yl)oxy)-3,5-dimethylbenzonitrile] | 7.56 µM |
| Cc1cc(C#N)cc(C)c1Oc1nc(Nc2ccc(C#N)cc2)nc2c1CN(S(C)(=O)=O)CC2 [BB0273964, 4-((2-((4-Cyanophenyl)amino)-6-(methylsulfonyl)-5,6,7,8-tetrahydropyrido[4,3-d]pyrimidine-4-yl)oxy)-3,5-dimethylbenzonitrile] | 0.145 µM |
| CCOC(=O)N1CCc2nc(Nc3ccc(C#N)cc3)nc(Oc3c(C)cc(C#N)cc3C)c2C1 [BB0273965, Ethyl 4-(4-cyano-2,6-dimethylphenoxy)-2-((4-cyanophenyl)amino)-7,8-dihydropyrido[4,3-d]pyrimidine-6(5H)-carboxylate] | 1.73 µM |
| Cc1cc(/C=C/C(=O)O)cc(C)c1Oc1nc(Nc2ccc(C#N)cc2)nc2c1CCN(C(=O)OC(C)(C)C)CC2 [BB0273969, (E)-3-(4-((7-(Tert-butoxycarbonyl)-2-((4-cyanophenyl)amino)-6,7,8,9-tetrahydro-5H-pyrimido[4,5-d]azepine-4-yl)oxy)-3,5-dimethylphenyl)acrylic acid] | 10700 µM |
| Cc1cc(C#N)cc(C)c1Oc1nc(Nc2ccc(C#N)cc2)nc2c1CCN(C(=O)c1ccncc1)CC2 [BB0274011, 4-((2-((4-Cyanophenyl)amino)-7-isonicotinoyl-6,7,8,9-tetrahydro-5H-pyrimido[4,5-d]azepine-4-yl)oxy)-3,5-dimethylbenzonitrile] | 27.1 µM |
| Cc1cc(C#N)cc(C)c1Oc1nc(Nc2ccc(C#N)cc2)nc2c1CCN(Cc1ccccn1)CC2 [BB0274014, 4-((2-((4-Cyanophenyl)amino)-7-(pyridine-2-ylmethyl)-6,7,8,9-tetrahydro-5H-pyrimido[4,5-d]azepine-4-yl)oxy)-3,5-dimethylbenzonitrile] | 5.98 µM |
| Cc1cc(C#N)cc(C)c1Oc1nc(Nc2ccc(C#N)cc2)nc2c1CCN(Cc1cccnc1)CC2 [BB0274015, 4-((2-((4-Cyanophenyl)amino)-7-(pyridine-3-ylmethyl)-6,7,8,9-tetrahydro-5H-pyrimido[4,5-d]azepine-4-yl)oxy)-3,5-dimethylbenzonitrile] | 29.9 µM |
| Cc1cc(C#N)cc(C)c1Oc1nc(Nc2ccc(C#N)cc2)nc2c1CCN(Cc1ccncc1)CC2 [BB0274016, 4-((2-((4-Cyanophenyl)amino)-7-(pyridine-4-ylmethyl)-6,7,8,9-tetrahydro-5H-pyrimido[4,5-d]azepine-4-yl)oxy)-3,5-dimethylbenzonitrile] | 4880 µM |
| Cc1cc(C#N)cc(C)c1Oc1nc(Nc2ccc(C#N)cc2)nc2c1CCNCC2 [BB0274021, 4-((2-((4-Cyanophenyl)amino)-6,7,8,9-tetrahydro-5H-pyrimido[4,5-d]azepine-4-yl)oxy)-3,5-dimethylbenzonitrile] | 0.0102 µM |
| Cc1cc(C#N)cc(C)c1Oc1nc(Nc2ccc(C#N)cc2)nc2c1CCN(C(=O)C1CCNCC1)CC2 [BB0274026, 4-((2-((4-Cyanophenyl)amino)-7-(piperidine-4-carbonyl)-6,7,8,9-tetrahydro-5H-pyrimido[4,5-d]azepine-4-yl)oxy)-3,5-dimethylbenzonitrile] | 0.364 µM |
| Cc1cc(C#N)cc(C)c1Oc1nc(Nc2ccc(C#N)cc2)nc2c1CCN(C1CCNCC1)CC2 [BB0274028, 4-((2-((4-Cyanophenyl)amino)-7-(piperidine-4-yl)-6,7,8,9-tetrahydro-5H-pyrimido[4,5-d]azepine-4-yl)oxy)-3,5-dimethylbenzonitrile] | 16.2 µM |
| Cc1cc(C#N)cc(C)c1Oc1nc(Nc2ccc(C#N)cc2)nc2c1CN(C(=O)CN)CC2 [BB0274051, 4-((6-(2-Aminoacetyl)-2-((4-cyanophenyl)amino)-5,6,7,8-tetrahydropyrido[4,3-d]pyrimidine-4-yl)oxy)-3,5-dimethylbenzonitrile] | 0.00552 µM |
| Cc1cc(C#N)cc(C)c1Oc1nc(Nc2ccc(C#N)cc2)nc2c1CCN(C(=O)C1CCCN1C(=O)OC(C)(C)C)CC2 (stereo not drawn) [BB0274063, Tert-butyl 2-(4-(4-cyano-2,6-dimethylphenoxy)-2-((cyanophenyl)amino)-6,7,8,9-tetrahydro-5H-pyrimido[4,5-d]azepine-7-carbonyl)pyrrolidine-1-carboxylate] | 230 µM |
| Cc1cc(C#N)cc(C)c1Oc1nc(Nc2ccc(C#N)cc2)nc2c1CCN(C1CCOCC1)CC2 [BB0274072, 4-((2-((4-Cyanophenyl)amino)-7-(tetrahydro-2H-pyran-4-yl)-6,7,8,9-tetrahydro-5H-pyrimido[4,5-d]azepine-4-yl)oxy)-3,5-dimethylbenzonitrile] | 4.07 µM |

Further lines, results first:

| IC50 | SMILES |
| --- | --- |
| 3220 µM | Cc1cc(C#N)cc(C)c1Oc1nc(Nc2ccc(C#N)cc2)nc2c1CCN(C(=O)C1CCN(C(=O)OC(C)(C)C)CC1)CC2 [BB0274025, Tert-butyl 4-(4-(4-cyano-2,6-dimethylphenoxy)-2-((4-cyanophenyl)amino)-6,7,8,9-tetrahydro-5H-pyrimido[4,5-d]asein-7-carbonyl)piperidine-1-carboxylate] |
| 493 µM | Cc1cc(C#N)cc(C)c1Oc1nc(Nc2ccc(C#N)cc2)nc2c1CCN(C(=O)[C@H]1CCCN1C(=O)OC(C)(C)C)CC2 [BB0274064, (R)-Tert-butyl 2-(4-(4-cyano-2,6-dimethylphenoxy)-2-((cyanophenyl)amino)-6,7,8,9-tetrahydro-5H-pyrimido[4,5-d]azepine-7-carbonyl)pyrrolidine-1-carboxylate] |
| 291 µM | Cc1cc(/C=C/C#N)cc(C)c1Oc1nc(Nc2ccc(C#N)cc2)nc2c1CCN(C(=O)OC(C)(C)C)CC2 [BB0274009, Tert-butyl 2-((4-cyanophenyl)amino)-4-(4-(2-cyanovinyl)-2,6-dimethylphenoxy)-8,9-dihydro-5H-pyrimido[4,5-d]azepine-7(6H)-carboxylate] |
| 224 µM | Cc1cc(C#N)cc(C)c1Oc1nc(Nc2ccc(C#N)cc2)nc2c1CCN(C)C2 [BB0273774, 4-((2-((4-Cyanophenyl)amino)-7-methyl-5,6,7,8-tetrahydropyrido[3,4-d]pyrimidine-4-yl)oxy)-3,5-dimethylbenzonitrile] |
| 117 µM | Cc1cc(C#N)cc(C)c1Oc1nc(Nc2ccc(C#N)cc2)nc2c1CCN(C(=O)OC(C)(C)C)CC2 [BB0273972, Tert-butyl 4-(4-cyano-2,6-dimethylphenoxy)-2-((4-cyanophenyl)amino)-8,9-dihydro-5H-pyrimido[4,5-d]azepine-7(6H)-carboxylate] |
| 41.1 µM | Cc1cc(C#N)cc(C)c1Oc1nc(Nc2ccc(C#N)cc2)nc2c1CCN(C(=O)[C@@H]1CCCN1C(=O)OC(C)(C)C)CC2 [BB0274065, (S)-Tert-butyl 2-(4-(4-cyano-2,6-dimethylphenoxy)-2-((cyanophenyl)amino)-6,7,8,9-tetrahydro-5H-pyrimido[4,5-d]azepine-7-carbonyl)pyrrolidine-1-carboxylate] |
| 37 µM | Cc1cc(C#N)cc(C)c1Oc1nc(Nc2ccc(C#N)cc2)nc2c1CCN(C1CCN(C(=O)OC(C)(C)C)CC1)CC2 [BB0274027, Tert-butyl 4-(4-(4-cyano-2,6-dimethylphenoxy)-2-((4-cyanophenyl)amino)-8,9-dihydro-5H-pyrimido[4,5-d]azepine-7(6H)-yl)piperidine-1-carboxylate] |
| 5.81 µM | Cc1cc(C#N)cc(C)c1Oc1nc(Nc2ccc(C#N)cc2)nc2c1CCN(C(=O)c1cccnc1)CC2 [BB0274012, 4-((2-((4-Cyanophenyl)amino)-7-nicotinoyl-6,7,8,9-tetrahydro-5H-pyrimido[4,5-d]azepine-4-yl)oxy)-3,5-dimethylbenzonitrile] |
| 0.127 µM | Cc1cc(C#N)cc(C)c1Oc1nc(Nc2ccc(C#N)cc2)nc2c1CN(C(=O)CN1CC(O)C1)CC2 [BB0274052, 4-((2-((4-Cyanophenyl)amino)-6-(2-(3-hydroxyazetidine-1-yl)acetyl)-5,6,7,8-tetrahydropyrido[4,3-d]pyrimidine-4-yl)oxy)-3,5-dimethylbenzonitrile] |
| 0.062 µM | Cc1cc(C#N)cc(C)c1Oc1nc(Nc2ccc(C#N)cc2)nc2c1CCN(C(=O)c1ccccn1)CC2 [BB0274010, 4-((2-((4-Cyanophenyl)amino)-7-picolynoyl-6,7,8,9-tetrahydro-5H-pyrimido[4,5-d]azepine-4-yl)oxy)-3,5-dimethylbenzonitrile] |

Same assay, conditions: MT-4 cells infected with HIV-1 at a constant virus dose of 300 CCID50; read-out: Activity against HIV-1 12RU 69831 strain (subtype A)

| IC50 | SMILES |
| --- | --- |
| 0.00583 µM | Cc1cc(C#N)cc(C)c1Oc1nc(Nc2ccc(C#N)cc2)nc2c1CCNCC2 [BB0273976, 4-((2-((4-Cyanophenyl)amino)-6,7,8,9-tetrahydro-5H-pyrimido[4,5-d]azepine-4-yl)oxy)-3,5-dimethylbenzonitrile] |
